Results taken from ChEMBL document CHEMBL1909046, “DrugMatrix in vitro pharmacology data”.

Key:
[1] = target: T1, Angiotensin-converting enzyme (Oryctolagus cuniculus, UniProt P12822); experiment: biochemical; format: tissue-based, Lung;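 further: enzymatic inhibition of angiotensin-converting enzyme measured with FAPGG as the substrate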
T1 sequence (P12822 whole entry): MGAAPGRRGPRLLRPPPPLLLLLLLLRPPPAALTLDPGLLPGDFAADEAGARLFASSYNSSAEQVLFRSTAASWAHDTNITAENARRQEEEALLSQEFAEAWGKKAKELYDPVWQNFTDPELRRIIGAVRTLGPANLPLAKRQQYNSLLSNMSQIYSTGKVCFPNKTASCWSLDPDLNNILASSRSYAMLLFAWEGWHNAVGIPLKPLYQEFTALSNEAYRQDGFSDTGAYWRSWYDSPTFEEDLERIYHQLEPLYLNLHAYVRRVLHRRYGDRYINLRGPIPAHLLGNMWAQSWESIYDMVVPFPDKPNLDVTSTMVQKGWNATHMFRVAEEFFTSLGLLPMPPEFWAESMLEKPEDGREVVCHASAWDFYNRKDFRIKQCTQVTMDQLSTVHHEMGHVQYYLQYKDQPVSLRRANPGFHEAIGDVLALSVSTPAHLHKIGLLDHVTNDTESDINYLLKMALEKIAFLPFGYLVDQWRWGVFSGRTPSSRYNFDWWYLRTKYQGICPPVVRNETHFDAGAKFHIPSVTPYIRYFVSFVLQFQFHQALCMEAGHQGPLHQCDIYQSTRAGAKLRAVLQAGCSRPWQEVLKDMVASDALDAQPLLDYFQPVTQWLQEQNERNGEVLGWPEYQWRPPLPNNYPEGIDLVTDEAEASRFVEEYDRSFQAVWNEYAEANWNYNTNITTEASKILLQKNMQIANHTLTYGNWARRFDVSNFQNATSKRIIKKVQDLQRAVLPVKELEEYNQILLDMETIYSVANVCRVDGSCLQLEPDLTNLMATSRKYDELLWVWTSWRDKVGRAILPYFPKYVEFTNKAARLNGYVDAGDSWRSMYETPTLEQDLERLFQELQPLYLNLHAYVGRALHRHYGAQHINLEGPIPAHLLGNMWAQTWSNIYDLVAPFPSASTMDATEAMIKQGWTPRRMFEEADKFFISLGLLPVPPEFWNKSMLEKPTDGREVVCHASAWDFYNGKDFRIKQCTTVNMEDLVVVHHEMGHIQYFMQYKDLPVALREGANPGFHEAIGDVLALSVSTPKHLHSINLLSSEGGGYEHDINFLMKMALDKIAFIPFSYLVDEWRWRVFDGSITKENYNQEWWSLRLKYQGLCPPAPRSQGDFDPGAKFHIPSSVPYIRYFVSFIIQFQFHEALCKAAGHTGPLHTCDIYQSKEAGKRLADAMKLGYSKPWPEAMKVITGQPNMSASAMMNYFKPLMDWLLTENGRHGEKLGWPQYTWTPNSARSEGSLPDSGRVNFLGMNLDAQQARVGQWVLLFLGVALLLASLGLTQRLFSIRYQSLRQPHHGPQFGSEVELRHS

Cathepsin G = target: T2, Cathepsin G (Homo sapiens, UniProt P08311); format: tissue-based; settings: neutrophil;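 further: inhibition of Cathepsin G enzyme activity, tested on an AMC-conjugated peptide substrate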
T2 sequence (P08311 whole entry): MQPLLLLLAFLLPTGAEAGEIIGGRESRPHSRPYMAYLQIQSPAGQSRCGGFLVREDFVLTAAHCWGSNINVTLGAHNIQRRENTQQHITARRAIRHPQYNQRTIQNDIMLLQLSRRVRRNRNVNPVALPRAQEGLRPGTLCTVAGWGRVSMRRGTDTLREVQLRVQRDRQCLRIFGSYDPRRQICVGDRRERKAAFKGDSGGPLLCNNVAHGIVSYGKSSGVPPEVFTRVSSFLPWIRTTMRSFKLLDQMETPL

[2] = target: T3, Receptor-type tyrosine-protein phosphatase C (Homo sapiens, UniProt P08575); set-up: species or system Escherichia coli;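 further: inhibition of CD45 enzyme activity measured using DiFMUP as substrate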
T3 sequence (P08575 whole entry): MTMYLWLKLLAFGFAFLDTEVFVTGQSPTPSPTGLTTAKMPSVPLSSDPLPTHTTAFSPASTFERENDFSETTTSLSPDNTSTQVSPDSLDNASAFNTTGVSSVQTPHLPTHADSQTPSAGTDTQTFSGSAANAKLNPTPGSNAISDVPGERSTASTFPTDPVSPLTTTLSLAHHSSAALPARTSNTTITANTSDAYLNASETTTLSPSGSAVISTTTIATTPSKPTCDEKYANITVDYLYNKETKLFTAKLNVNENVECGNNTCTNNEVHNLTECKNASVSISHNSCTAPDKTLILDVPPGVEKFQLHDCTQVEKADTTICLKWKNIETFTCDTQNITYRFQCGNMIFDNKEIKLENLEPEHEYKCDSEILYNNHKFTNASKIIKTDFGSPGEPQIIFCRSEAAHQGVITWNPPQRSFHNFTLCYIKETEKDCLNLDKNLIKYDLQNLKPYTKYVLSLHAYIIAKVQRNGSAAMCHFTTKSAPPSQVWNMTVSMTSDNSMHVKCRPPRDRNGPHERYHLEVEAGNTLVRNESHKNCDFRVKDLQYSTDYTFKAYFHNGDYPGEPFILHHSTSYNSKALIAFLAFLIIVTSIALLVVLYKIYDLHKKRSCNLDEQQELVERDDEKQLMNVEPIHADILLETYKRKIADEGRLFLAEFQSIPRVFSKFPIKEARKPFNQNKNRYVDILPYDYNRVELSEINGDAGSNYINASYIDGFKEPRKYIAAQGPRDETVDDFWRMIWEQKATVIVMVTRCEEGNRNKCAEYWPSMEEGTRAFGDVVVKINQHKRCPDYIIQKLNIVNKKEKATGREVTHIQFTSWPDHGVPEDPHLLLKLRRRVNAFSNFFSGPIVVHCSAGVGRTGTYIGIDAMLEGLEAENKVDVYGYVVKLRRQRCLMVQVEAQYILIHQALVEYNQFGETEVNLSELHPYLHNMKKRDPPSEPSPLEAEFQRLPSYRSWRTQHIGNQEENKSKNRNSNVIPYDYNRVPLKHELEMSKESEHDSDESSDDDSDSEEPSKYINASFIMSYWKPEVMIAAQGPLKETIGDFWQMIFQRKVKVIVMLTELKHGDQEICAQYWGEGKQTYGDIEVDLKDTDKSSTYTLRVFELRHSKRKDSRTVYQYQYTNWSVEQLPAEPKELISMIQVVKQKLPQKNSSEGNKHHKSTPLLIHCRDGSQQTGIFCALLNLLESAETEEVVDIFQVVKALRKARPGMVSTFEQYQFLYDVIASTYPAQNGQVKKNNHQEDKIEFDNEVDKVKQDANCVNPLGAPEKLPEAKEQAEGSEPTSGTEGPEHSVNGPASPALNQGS

[3] = target: Receptor tyrosine-protein kinase erbB-2 (Homo sapiens, UniProt P04626); experiment: biochemical; format: cell-based, Insect cells; settings: insect cells;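 further: inhibition of HER2 kinase enzyme activity, measured with Poly(Glu:Tyr) as the phosphorylation substrate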
Histamine H2 receptor = Histamine H2 receptor (Homo sapiens, UniProt P25021); format: cell membranes, CHO-K1, Membrane; settings: cho-k1
Sequence of Histamine H2 receptor (P25021 whole entry): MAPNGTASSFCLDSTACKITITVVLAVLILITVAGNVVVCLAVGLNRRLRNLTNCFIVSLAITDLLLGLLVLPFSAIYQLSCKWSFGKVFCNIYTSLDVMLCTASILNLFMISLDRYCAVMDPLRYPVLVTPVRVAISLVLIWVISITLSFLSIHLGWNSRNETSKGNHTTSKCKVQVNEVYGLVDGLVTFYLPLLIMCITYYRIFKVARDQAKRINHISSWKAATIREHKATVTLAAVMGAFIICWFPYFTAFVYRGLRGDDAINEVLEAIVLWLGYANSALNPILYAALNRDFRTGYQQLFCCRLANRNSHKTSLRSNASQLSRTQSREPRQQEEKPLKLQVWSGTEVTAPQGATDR

[4] = target: Voltage-gated inwardly rectifying potassium channel KCNH2 (Homo sapiens, UniProt Q12809); settings: hek293
Sequence of Voltage-gated inwardly rectifying potassium channel KCNH2 (Q12809 whole entry): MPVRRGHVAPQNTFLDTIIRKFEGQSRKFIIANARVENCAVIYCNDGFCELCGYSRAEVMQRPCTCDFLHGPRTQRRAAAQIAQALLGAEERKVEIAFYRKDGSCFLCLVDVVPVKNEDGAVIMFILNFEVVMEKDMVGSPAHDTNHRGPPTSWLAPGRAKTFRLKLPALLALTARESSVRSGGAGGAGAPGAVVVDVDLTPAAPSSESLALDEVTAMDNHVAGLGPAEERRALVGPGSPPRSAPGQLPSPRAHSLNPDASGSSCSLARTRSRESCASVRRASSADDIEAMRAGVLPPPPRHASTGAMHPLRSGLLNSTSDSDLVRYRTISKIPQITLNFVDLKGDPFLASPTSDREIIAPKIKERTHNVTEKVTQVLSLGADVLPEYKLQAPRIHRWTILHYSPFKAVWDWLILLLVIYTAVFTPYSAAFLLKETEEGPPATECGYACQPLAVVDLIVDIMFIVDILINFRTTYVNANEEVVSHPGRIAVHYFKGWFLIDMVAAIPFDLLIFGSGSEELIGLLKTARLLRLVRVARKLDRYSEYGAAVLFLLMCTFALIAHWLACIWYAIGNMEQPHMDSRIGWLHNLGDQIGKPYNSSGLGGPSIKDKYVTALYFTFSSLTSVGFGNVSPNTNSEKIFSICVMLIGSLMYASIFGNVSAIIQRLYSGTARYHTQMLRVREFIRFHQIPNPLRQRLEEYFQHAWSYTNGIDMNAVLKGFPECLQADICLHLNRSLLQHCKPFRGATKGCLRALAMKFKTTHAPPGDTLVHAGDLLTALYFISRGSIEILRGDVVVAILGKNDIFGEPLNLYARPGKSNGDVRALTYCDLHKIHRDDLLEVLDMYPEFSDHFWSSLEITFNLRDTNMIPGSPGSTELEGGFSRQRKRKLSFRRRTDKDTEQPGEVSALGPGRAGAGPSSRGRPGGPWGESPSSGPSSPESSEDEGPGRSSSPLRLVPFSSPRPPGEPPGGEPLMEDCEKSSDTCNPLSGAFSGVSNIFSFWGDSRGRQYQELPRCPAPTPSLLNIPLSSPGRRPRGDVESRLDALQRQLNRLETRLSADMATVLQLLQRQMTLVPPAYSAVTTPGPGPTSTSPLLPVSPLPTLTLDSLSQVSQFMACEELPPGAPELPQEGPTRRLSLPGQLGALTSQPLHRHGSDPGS
Further: in other assays of this panel Not Active means under 50% inhibition at 10 µM.

CN(C)[C@@H]1C(O)=C(C(N)=O)C(=O)[C@@]2(O)C(O)=C3C(=O)c4c(O)cccc4[C@@](C)(O)[C@H]3[C@H](O)[C@@H]12 [OXYTETRACYCLINE]
Not Active: IC50 [1] | IC50 (Cathepsin G) | IC50 [2] | IC50 [3] | IC50 (Histamine H2 receptor) | IC50 [4] | Ki [4]

CC(C)(S)[C@@H](N)C(=O)O [PENICILLAMINE]
Not Active: IC50 [1] | IC50 (Cathepsin G) | IC50 [2] | IC50 [3] | IC50 (Histamine H2 receptor) | IC50 [4] | Ki [4]

CC(=O)CCCCn1c(=O)c2c(ncn2C)n(C)c1=O [PENTOXIFYLLINE]
Not Active: IC50 [1] | IC50 (Cathepsin G) | IC50 [2] | IC50 [3] | IC50 (Histamine H2 receptor) | IC50 [4] | Ki [4]

O=C1NC(=O)C(c2ccccc2)(c2ccccc2)N1 [PHENYTOIN]
Not Active: IC50 [1] | IC50 (Cathepsin G) | IC50 [2] | IC50 [3] | IC50 (Histamine H2 receptor) | IC50 [4] | Ki [4]

CNC(=O)Oc1ccc2c(c1)[C@]1(C)CCN(C)[C@@H]1N2C [PHYSOSTIGMINE]
Not Active: IC50 [1] | IC50 (Cathepsin G) | IC50 [2] | IC50 [3] | IC50 (Histamine H2 receptor) | IC50 [4] | Ki [4]

C=C(C)[C@@H]1[C@H]2OC(=O)[C@@H]1[C@]1(O)C[C@H]3O[C@]34C(=O)O[C@H]2[C@]14C [PICROTOXININ]
Not Active: IC50 [1] | IC50 (Cathepsin G) | IC50 [2] | IC50 [3] | IC50 (Histamine H2 receptor) | IC50 [4] | Ki [4]

CN1C(C(=O)Nc2ccccn2)=C(O)c2ccccc2S1(=O)=O [PIROXICAM]
Not Active: IC50 [1] | IC50 (Cathepsin G) | IC50 [2] | IC50 [3] | IC50 (Histamine H2 receptor) | IC50 [4] | Ki [4]

CCC1(c2ccccc2)C(=O)NCNC1=O [PRIMIDONE]
Not Active: IC50 [1] | IC50 (Cathepsin G) | IC50 [2] | IC50 [3] | IC50 (Histamine H2 receptor) | IC50 [4] | Ki [4]

CCCc1cc(=O)[nH]c(=S)[nH]1 [PROPYLTHIOURACIL]
Not Active: IC50 [1] | IC50 (Cathepsin G) | IC50 [2] | IC50 [3] | IC50 (Histamine H2 receptor) | IC50 [4] | Ki [4]

CARBOPLATIN
Not Active: IC50 [1] | Ki [1] | IC50 (Cathepsin G) | Ki (Cathepsin G) | IC50 [2] | Ki [2] | IC50 [3] | Ki [3] | IC50 (Histamine H2 receptor) | Ki (Histamine H2 receptor) | IC50 [4] | Ki [4]

CISPLATIN
Not Active: IC50 [1] | Ki [1] | IC50 (Cathepsin G) | Ki (Cathepsin G) | IC50 [2] | Ki [2] | IC50 [3] | Ki [3] | IC50 (Histamine H2 receptor) | Ki (Histamine H2 receptor) | IC50 [4] | Ki [4]

GOLD SODIUM THIOMALATE
Not Active: IC50 [1] | Ki [1] | IC50 (Cathepsin G) | Ki (Cathepsin G) | IC50 [2] | Ki [2] | IC50 [3] | Ki [3] | IC50 (Histamine H2 receptor) | Ki (Histamine H2 receptor) | IC50 [4] | Ki [4]

OXALIPLATIN
Not Active: IC50 [1] | Ki [1] | IC50 (Cathepsin G) | Ki (Cathepsin G) | IC50 [2] | Ki [2] | IC50 [3] | Ki [3] | IC50 (Histamine H2 receptor) | Ki (Histamine H2 receptor) | IC50 [4] | Ki [4]
